Laboratory results published in paper doi:10.1101/2024.12.25.630315 (bioRxiv, 2024).

How the values were obtained:
[1] = biological target: T1, Nectin-4 (Homo sapiens, UniProt Q96NY8); assay: In vitro blocking of [^68Ga]AJ647 uptake by non-radioactive AJ647; format: cell-based; settings: pre-incubation with 2 μM non-radioactive AJ647
T1 construct: host or cells: HT1376, SCaBER, T24, RT112, UC9, UC14 urothelial carcinoma cells; HT1376 xenografts in NSG mice
T1 sequence (Q96NY8 32-510): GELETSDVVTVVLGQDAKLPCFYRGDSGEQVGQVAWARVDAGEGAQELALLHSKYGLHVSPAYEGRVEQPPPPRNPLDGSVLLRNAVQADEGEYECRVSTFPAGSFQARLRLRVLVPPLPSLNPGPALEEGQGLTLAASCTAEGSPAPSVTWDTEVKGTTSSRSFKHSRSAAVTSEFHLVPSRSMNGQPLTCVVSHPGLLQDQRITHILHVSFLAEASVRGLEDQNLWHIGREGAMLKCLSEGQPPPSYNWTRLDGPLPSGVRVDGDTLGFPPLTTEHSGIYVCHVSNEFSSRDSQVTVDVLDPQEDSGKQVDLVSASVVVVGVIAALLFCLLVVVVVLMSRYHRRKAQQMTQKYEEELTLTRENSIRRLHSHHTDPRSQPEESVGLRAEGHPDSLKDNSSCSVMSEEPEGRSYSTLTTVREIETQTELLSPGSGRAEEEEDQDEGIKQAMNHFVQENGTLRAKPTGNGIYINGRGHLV
Method: Figure 3. In vitro specificity of [^68Ga]AJ647 for Nectin-4 in bladder cancer cell lines A) [^68Ga]AJ647 binding (percent incubated activity, %IA) to various bladder cancer cell lines. Cells were incubated with ~37 kBq (~1 μCi) [^68Ga]AJ647 at 4°C for 1 hour. […] B) Flow cytometry analysis of Nectin-4 receptor expression across different bladder cancer cell lines, providing insight into the variability in receptor density among the cell lines. […] Data in figure A and C are represented as mean ± SD. Pearson correlation used in C.

[2] = biological target: T1, Nectin-4; assay: In vivo blocking of [^68Ga]AJ647 uptake by non-radioactive AJ647, HT1376 xenografts; parameters: species or system mouse; settings: 1 mg/kg non-radioactive AJ647; PET
Method: Dynamic PET-MR imaging was performed for up to 90 minutes post-injection. […] By 60 minutes, the tumor contrast had further improved due to background radiotracer clearance, as evidenced by the percent injected activity per cubic centimeter (%IA/cc) values derived from [^68Ga]AJ647 PET (Fig. 4B). […] In contrast, minimal uptake was detected in non–Nectin-4-expressing tissues such as muscle.
Mice with tumor volume of ~100–150 mm^3 were injected with ~[…] (7.4 MBq) of [^68Ga]AJ647 in […] of 5% ethanol in saline intravenously and anesthetized under 2.5% isoflurane. PET-CT images were acquired at 60 minutes after radiotracer injection at 5 min/bed in an ARGUS small-animal PET/CT scanner (Sedecal, Madrid, Spain) as described (n=3 unless otherwise noted). PET-MR images were acquired on a simultaneous 7T Bruker PET-MR scanner. Dynamic imaging was conducted to evaluate pharmacokinetics of [^68Ga]AJ647. […] The SUV values were calculated by finding percent of injected activity (%IA) based on a calibration factor obtained from a known radioactive quantity, then normalizing by mice weight. […] For change in accessible Nectin-4 levels following EV treatment, ΔSUV was calculated by subtracting baseline (pre-treatment) uptake from post-therapy uptake of [^68Ga]AJ647. Target engagement was quantified by normalizing this change by initial SUV in same subject controls. […]

CSCC[C@@H]1NC(=O)[C@@H]2CSCCC(=O)N3CN(CN(C3)C(=O)CCSC[C@H](NC(=O)CCOCCOCCOCCOCCOCCOCCOCCOCCOCCOCCOCCOCCNC(=O)CN3CCN(CC(=O)O)CCN(CC(=O)O)CC3)C(=O)N3CCC[C@H]3C(=O)N[C@@H](Cc3cccc4ccccc34)C(=O)N[C@@H](CC(=O)O)C(=O)N2)C(=O)CCSC[C@@H](C(N)=O)NC(=O)[C@H](Cc2c[nH]c3ccccc23)NC(=O)[C@@H]2C[C@@H](O)CN2C(=O)[C@@H]2CCCN2C(=O)[C@H]([C@@H](C)O)NC(=O)[C@H](CO)NC(=O)[C@H](Cc2c[nH]c3ccccc23)NC(=O)[C@@H](CC(=O)O)NC(=O)[C@H](CCCCNC(=N)N)NC1=O [AJ647]
effect of blocking dose on [^68Ga]AJ647 uptake in bladder cancer cell lines [1]: significantly reduced radiotracer uptake
effect on [^68Ga]AJ647 tracer uptake in HT1376 xenografts [2]: reduction in tracer uptake
